According to US8119671B2, “Isoxazoline-substituted benzamide compound and pest control agent” (Nissan Chemical Industries, Ltd., priority 2007, dated 2012):

Tests used:
Format in all cases: in vivo
Helicoverpa armigera = experiment: Test Example 17: Mortality Test for Helicoverpa armigera (Comparative Test 1); conditions: 144 h, 3-instar larvae, after 6 days; for mortality at 3.3 ppm: concentration 3.3 ppm; for mortality at 10 ppm: concentration 10 ppm; for mortality at 33 ppm: concentration 33 ppm; for mortality at 100 ppm: concentration 100 ppm; for mortality at 0.1 ppm: concentration 0.1 ppm; for mortality at 0.3 ppm: concentration 0.3 ppm; for mortality at 1 ppm: concentration 1 ppm
Experimental: 10% emulsifiable concentrates of the compound of the present invention and a comparative compound were diluted with water containing a spreader to prepare drug solutions in a predetermined concentration. In these drug solutions, a leaf of Canarium album was immersed for about 10 seconds and was air-dried and then put into a petri dish. In the petri dish, seven 3-instar larvae of Helicoverpa armigera per petri dish were released and the petri dish was capped with a lid having pores and stored in a thermostat room of 25° C. After 2 days of the treatment, an artificial feed (1 cm^3) was added into the petri dish. The number of killed larvae after 6 days was measured and the mortality was calculated from the following calculation formula: Mortality (%)=(number of killed larvae/number of released larvae)×100. Here, the test was carried out with two replications.

[1] = test system: Frankliniella occidentalis; experiment: Test Example 18: Mortality Test for Frankliniella occidentalis (Comparative Test 2); conditions: 48 h
Experimental: In a styrol cup having an inner diameter of 7 cm, a wet filtration paper was laid, and on the paper, a leaf of kidney bean cut out so as to have the same diameter as the inner diameter of the cup was laid, followed by inoculating ten 1 instar larvae of Frankliniella occidentalis per leaf to the leaf. 10% emulsifiable concentrates of the compound of the present invention and a comparative compound were diluted with water containing a spreader to prepare drug solutions in a predetermined concentration. The drug solutions were dusted using a rotary dusting tower in an amount of 2.5 mL per styrol cup, and the cup was capped and stored in a thermostat room of 25° C. The number of killed larvae after 2 days was measured and the mortality was calculated from the following calculation formula: Mortality (%)=(number of killed larvae/number of released larvae)×100. Here, the test was carried out with two replications.

Homona magnanima = experiment: Test Example 3: Mortality Test for Homona magnanima; conditions: 144 h
Experimental: (§1) A 10% emulsifiable concentrate of the compound of the present invention (depending on the type of the compound, a 10% wettable powder was subjected to the test) was diluted with water containing a spreader to prepare a drug solution in a concentration of 100 ppm. In this drug solution, a leaf of canarium album was immersed for about 10 seconds and was air-dried and then put into a petri dish. In the petri dish, five 2 instar larvae of Homona magnanima per petri dish were released and the petri dish was capped and stored in a thermostat room of 25° C. The number of killed larvae after 6 days was measured and the mortality was calculated from the same calculation formula as that in Test Example 1. Here, the test was carried out with two replications.

Liriomyza trifolii = experiment: Test Example 13: Mortality Test for Liriomyza trifolii; conditions: 144 h, drug solution 500 ppm, kidney bean leaf with eggs immersed, after 6 days
Experimental: as §1, with “500” for “100”, “kidney bean on which Liriomyza trifolii laid eggs (10 eggs/leaf) and which was cut out to a diameter of 7 cm” for “canarium album”, “laid on” for “put into”, “wet filtration paper laid in a styrol cup having an inner diameter” for “petri dish. In the petri dish, five 2 instar larvae”, “7 cm. The styrol cup” for “Homona magnanima per petri dish were released and the petri dish”

Spodoptera litura = experiment: Test Example 2: Mortality Test for Spodoptera litura; conditions: 144 h
Experimental: as §1, with “10” for “100”, “Spodoptera litura” for “Homona magnanima”

Plutella xylostella = experiment: Test Example 1: Mortality Test for Plutella xylostella; conditions: 144 h
Experimental: as §1, with “10” for “100”, “Plutella xylostella” for “Homona magnanima”, “following” for “same”, “formula: Mortality (%)=(number of killed larvae/number of released larvae)×100.” for “formula as that in Test Example 1.”

Planococcus kraunhiae = experiment: Test Example 11: Mortality Test for Planococcus kraunhiae; conditions: 144 h
Experimental: In a styrol cup having an inner diameter of 7 cm, a wet filtration paper was laid, and on the paper, a leaf of kidney bean cut out so as to have the same diameter as the inner diameter of the cup was laid, followed by inoculating ten 1 instar larvae of Planococcus kraunhiae per leaf to the leaf. A 10% emulsifiable concentrate of the compound of the present invention (depending on the type of the compound, a 10% wettable powder was subjected to the test) was diluted with water containing a spreader to prepare a drug solution in a concentration of 500 ppm. The drug solution was dusted using a rotary dusting tower in an amount of 2.5 mL per styrol cup and the cup was capped and stored in a thermostat room of 25° C. The number of killed larvae after 6 days was measured and the mortality was calculated from the same calculation formula as that in Test Example 1. Here, the test was carried out with two replications.

Bemisia argentifolii = experiment: Test Example 9: Mortality Test for Bemisia argentifolii; conditions: in Solanum lycopersicum, 144 h
Experimental: In a styrol cup having an inner diameter of 7 cm, a wet filtration paper was laid, and on the paper, a cut-out leaf of tomato on which Bemisia argentifolii laid eggs (10 eggs/leaf) was laid. A 10% emulsifiable concentrate of the compound of the present invention (depending on the type of the compound, a 10% wettable powder was subjected to the test) was diluted with water containing a spreader to prepare a drug solution in a concentration of 500 ppm. The drug solution was dusted using a rotary dusting tower in an amount of 2.5 mL per styrol cup and the cup was capped and stored in a thermostat room of 25° C. The number of killed larvae after 6 days was measured and the mortality was calculated from the same calculation formula as that in Test Example 1. Here, the test was carried out with two replications.

Myzus persicae = experiment: Test Example 10: Mortality Test for Myzus persicae; conditions: 144 h
Experimental: In a glass petri dish having an inner diameter of 3 cm, a wet absorbent cotton was laid, and on the cotton, a leaf of canarium album cut out so as to have the same diameter as the inner diameter of the petri dish was laid, followed by releasing 4 apterous imagines of Myzus persicae on the leaf. After one day, 10% emulsifiable concentrate of the compound of the present invention (depending on the type of the compound, a 10% wettable powder was subjected to the test) was diluted with water containing a spreader to prepare a drug solution in a concentration of 500 ppm. The drug solution was dusted using a rotary dusting tower (2.5 mg/cm^2) and the petri dish was capped and stored in a thermostat room of 25° C. The number of killed imagines after 6 days was measured and the mortality was calculated from the same calculation formula as that in Test Example 1. Here, the test was carried out with two replications.

SMILES: CNC(=O)NC(=O)c1ccc(C2=NOC(c3cc(Cl)cc(Cl)c3)(C(F)(F)F)C2)cc1C (centres unmarked) [Comparative compound A, reference compound]
- mortality at 3.3 ppm (Helicoverpa armigera): 21.4%
- mortality at 10 ppm (Helicoverpa armigera): 92.9%
- mortality at 33 ppm (Helicoverpa armigera): 100%
- mortality at 100 ppm (Helicoverpa armigera): 100%

SMILES: COC(=NC(=O)c1ccc(C2=NOC(c3cc(Cl)cc(Cl)c3)(C(F)(F)F)C2)cc1C)SC (centres unmarked) [Comparative compound B, reference compound]
- mortality at 3.3 ppm (Helicoverpa armigera): 35.7%
- mortality at 10 ppm (Helicoverpa armigera): 71.4%
- mortality at 33 ppm (Helicoverpa armigera): 85.7%
- mortality at 100 ppm (Helicoverpa armigera): 100%

SMILES: O=C(N[C@H]1C[C@@H]1c1ccccc1)c1ccc(C2=NOC(c3ccc(Cl)c(Cl)c3)(C(F)(F)F)C2)cc1 (some centres unmarked) [Comparative compound C]
- mortality at 3.3 ppm [1]: 0%
- mortality at 10 ppm [1]: 0%
- mortality at 33 ppm [1]: 0%
- mortality at 100 ppm [1]: 0%

SMILES: CCNC(=O)NC(=O)c1ccc(C2=NOC(c3cc(Cl)cc(Cl)c3)(C(F)(F)F)C2)cc1C (centres unmarked) [Comparative compound D]
- mortality at 3.3 ppm [1]: 0%
- mortality at 10 ppm [1]: 45.7%
- mortality at 33 ppm [1]: 100%
- mortality at 100 ppm [1]: 100%

SMILES: COC(N)=NC(=O)c1ccc(C2=NOC(c3cc(Cl)cc(Cl)c3)(C(F)(F)F)C2)cc1C (centres unmarked) [No. 2-003, N-[Amino(methoxy)methylidene]-4-[5-(3,5-dichlorophenyl)-5-trifluoromethyl-4,5-dihydroisoxazole-3-yl]-2-methyl benzoic acid amide]
- mortality at 100 ppm (Homona magnanima): ≥ 80%
- mortality at 0.1 ppm (Helicoverpa armigera): 57.1%
- mortality at 0.3 ppm (Helicoverpa armigera): 85.7%
- mortality at 1 ppm (Helicoverpa armigera): 100%
- mortality at 3.3 ppm (Helicoverpa armigera): 100%
- mortality at 10 ppm (Helicoverpa armigera): 100%

SMILES: CSC(N)=NC(=O)c1ccc(C2=NOC(c3cc(Cl)cc(Cl)c3)(C(F)(F)F)C2)cc1C (centres unmarked) [No. 2-010, N-(Amino(methylthio)methylidene)-4-(5-(3,5-dichlorophenyl)-5-trifluoromethyl-4,5-dihydroisoxazole-3-yl)-2-methyl benzoic acid amide]
- mortality at 100 ppm (Homona magnanima): ≥ 80%
- mortality at 500 ppm (Liriomyza trifolii): ≥ 80%

SMILES: CNC(N)=NC(=O)c1ccc(C2=NOC(c3cc(Cl)cc(Cl)c3)(C(F)(F)F)C2)cc1C (centres unmarked) [No. 2-012, N-[Amino(methylamino)methylidene]-4-[5-(3,5-dichlorophenyl)-5-trifluoromethyl-4,5-dihydroisoxazole-3-yl]-2-methyl benzoic acid amide]
- mortality at 100 ppm (Spodoptera litura): ≥ 80%
- mortality at 100 ppm (Plutella xylostella): ≥ 80%

SMILES: CNC(=NC(=O)c1ccc(C2=NOC(c3cc(Cl)cc(Cl)c3)(C(F)(F)F)C2)cc1C)OC (centres unmarked) [No. 3-001, N-[Methoxy(methylamino)methylidene]-4-[5-(3,5-dichlorophenyl)-5-trifluoromethyl-4,5-dihydroisoxazole-3-yl]-2-methyl benzoic acid amide]
- mortality at 100 ppm (Homona magnanima): ≥ 80%
- mortality at 500 ppm (Planococcus kraunhiae): ≥ 80%
- mortality at 0.1 ppm (Helicoverpa armigera): 0%
- mortality at 0.3 ppm (Helicoverpa armigera): 21.4%
- mortality at 1 ppm (Helicoverpa armigera): 71.4%
- mortality at 3.3 ppm (Helicoverpa armigera): 100%
- mortality at 10 ppm (Helicoverpa armigera): 100%
- mortality at 500 ppm (Bemisia argentifolii): ≥ 80%
- mortality at 500 ppm (Myzus persicae): ≥ 80%
